Data taken from US20240342292A1, “Compounds for the Degradation of EGFR Kinase” (BeiGene Switzerland GmbH, priority 2021, published 2024).

Legend:
L858R/T790M/C797S EGFR = biological target: T1, L858R/T790M/C797S EGFR (Homo sapiens, UniProt P00533, C797S/L858R/T790M); assay: EGFR degradation HTRF assay in H1975-clone #25 (LTC) cells; assay type: cell-based; conditions: 16h treatment; for DC50: H1975 # 25-LTC (L858R/T790M/C797S), HTRF; for Dmax: NCI-H1975, H1975 # 25-LTC (L858R/T790M/C797S), maximum percentage of degradation
T1 construct: expressed in transfected cells; host or cells: H1975 clone #25 (lentiviral over-expression, endogenous EGFR knocked out by sgRNA)
T1 sequence (P00533 25-1210 T790M/C797S/L858R): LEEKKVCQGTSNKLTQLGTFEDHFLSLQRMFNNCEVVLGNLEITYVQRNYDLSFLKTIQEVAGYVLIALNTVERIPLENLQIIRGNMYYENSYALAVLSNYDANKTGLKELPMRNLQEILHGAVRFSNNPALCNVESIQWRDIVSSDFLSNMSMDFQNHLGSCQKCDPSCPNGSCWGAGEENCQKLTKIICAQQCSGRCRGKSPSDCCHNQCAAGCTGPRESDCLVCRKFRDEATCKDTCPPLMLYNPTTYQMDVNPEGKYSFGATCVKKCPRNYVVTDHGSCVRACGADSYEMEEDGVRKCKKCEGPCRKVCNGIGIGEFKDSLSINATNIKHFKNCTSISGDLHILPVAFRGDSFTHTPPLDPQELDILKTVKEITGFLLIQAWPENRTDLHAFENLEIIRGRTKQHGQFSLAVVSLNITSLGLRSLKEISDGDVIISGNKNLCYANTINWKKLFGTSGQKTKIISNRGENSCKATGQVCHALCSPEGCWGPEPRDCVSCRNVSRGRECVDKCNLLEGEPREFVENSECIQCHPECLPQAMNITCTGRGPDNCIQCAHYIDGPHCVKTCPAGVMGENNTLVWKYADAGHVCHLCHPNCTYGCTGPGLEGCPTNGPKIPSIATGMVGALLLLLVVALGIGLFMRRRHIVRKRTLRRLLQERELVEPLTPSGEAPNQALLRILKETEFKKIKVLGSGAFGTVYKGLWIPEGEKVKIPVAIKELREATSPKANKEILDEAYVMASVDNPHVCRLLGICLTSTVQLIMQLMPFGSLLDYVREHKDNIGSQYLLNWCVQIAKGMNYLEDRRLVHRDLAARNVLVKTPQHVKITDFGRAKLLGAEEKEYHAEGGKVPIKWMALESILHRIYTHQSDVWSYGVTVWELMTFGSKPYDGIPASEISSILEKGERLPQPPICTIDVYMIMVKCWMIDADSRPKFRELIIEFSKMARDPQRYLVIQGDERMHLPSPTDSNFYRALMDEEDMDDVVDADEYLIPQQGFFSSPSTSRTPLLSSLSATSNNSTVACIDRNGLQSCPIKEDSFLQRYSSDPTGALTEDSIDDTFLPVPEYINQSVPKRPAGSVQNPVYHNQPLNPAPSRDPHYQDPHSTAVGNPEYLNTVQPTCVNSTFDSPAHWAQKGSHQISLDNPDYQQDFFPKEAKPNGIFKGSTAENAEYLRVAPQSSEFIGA
Method in brief: (§1)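 EGFR levels quantified by HTRF on lysates after 16 h compound exposure (top 10 uM, 5-fold, 8 points) in single-cell H1975 clones expressing only exogenous mutant EGFR after sgRNA knockout of endogenous copies. DC50 derived by four-parameter logistic fitting of inhibition percentage.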

Del19/T790M/C797S EGFR = assay: EGFR degradation HTRF assay in H1975-clone #28 (DTC) cells; assay type: cell-based; conditions: H1975 # 28 DTC (Del19/T790M/C797S), 16h treatment; for DC50: HTRF; for Dmax (%): maximum percentage of degradation
Method in brief: as §1

SMILES | DC50 (L858R/T790M/C797S EGFR) | Dmax (L858R/T790M/C797S EGFR) | DC50 (Del19/T790M/C797S EGFR) | Dmax (%) (Del19/T790M/C797S EGFR)
Cc1cc2cc(n1)-c1cnn(C)c1OCCC[C@@H](C)CN1/C(=N/C2=O)Nc2ccc(C(=O)N(C)[C@@H]3CCN(CCc4cc(F)c([C@H]5CCC(=O)NC5=O)c(F)c4)[C@@H](C)C3)cc21 [Example 258, (R,E)-N—((2S,4R)-1-(4-((R)-2,6-dioxopiperidin-3-yl)-3,5-difluorophenethyl)-2-methylpiperidin-4-yl) -N,1^1,2^6,7-tetramethyl-3-oxo-5^2,5^3-dihydro-1^1H,5^1H-11-oxa-4-aza-5(2,1)-benzo[d]imidazola-2(2,4)-pyridina-1(4,5)-pyrazolacycloundecaphane-5^6-carboxamide] | 0.381 nM | 88.2% | 0.577 nM | 81.96%
Cc1cc2cc(n1)-c1cnn(C)c1OCCC[C@@H](C)CN1/C(=N/C2=O)Nc2ccc(C(=O)N(C)[C@H]3CCN(CCc4cc(F)c([C@H]5CCC(=O)NC5=O)c(F)c4)[C@H](C)C3)cc21 [Example 259, (R,E)-N—((2R,4S)-1-(4-((R)-2,6-dioxopiperidin-3-yl)-3,5-difluorophenethyl)-2-methylpiperidin-4-yl)-N,1^1,2^6,7-tetramethyl-3-oxo-5^2,5^3-dihydro-1^1H,5^1H-11-oxa-4-aza-5(2,1)-benzo[d]imidazola-2(2,4)-pyridina-1(4,5)-pyrazolacycloundecaphane-5^6-carboxamide] | 0.841 nM | 89.2% | 0.725 nM | 83.21%
Cc1cc2cc(n1)-c1cnn(C)c1OCCC[C@@H](C)CN1/C(=N/C2=O)Nc2ccc(C(=O)N[C@@H]3C[C@H]4CC[C@@H](C3)N4CCc3cc(F)c([C@H]4CCC(=O)NC4=O)c(F)c3)cc21 [Example 264, (R,E)-N—((1R,3S,5S)-8-(4-((R)-2,6-dioxopiperidin-3-yl)-3,5-difluorophenethyl)-8-azabicyclo[3.2.1]octan-3-yl)-1^1,2^6,7-trimethyl-3-oxo-5^2,5^3-dihydro-1^1H,5^1H-11-oxa-4-aza-5(2,1)-benzo[d]imidazola-2(2,4)-pyridina-1(4,5)-pyrazolacycloundecaphane-5^6-carboxamide] | 0.546 nM | 89.8% | 0.677 nM | 68.8%
Cc1cc2cc(n1)-c1cnn(C)c1OCCC[C@@H](C)CN1/C(=N/C2=O)Nc2ccc(C(=O)N(C)[C@@H]3C[C@H]4CC[C@@H](C3)N4CCc3cc(F)c([C@H]4CCC(=O)NC4=O)c(F)c3)cc21 [Example 265, (R,E)-N—((1R,3S,5S)-8-(4-((R)-2,6-dioxopiperidin-3-yl)-3,5-difluorophenethyl)-8-azabicyclo[3.2.1]octan-3-yl)-N,1^1,2^6,7-tetramethyl-3-oxo-5^2,5^3-dihydro-1^1H,5^1H-11-oxa-4-aza-5(2,1)-benzo[d]imidazola-2(2,4)-pyridina-1(4,5)-pyrazolacycloundecaphane-5^6-carboxamide] | 0.246 nM | 90.9% | 0.625 nM | 79.26%
Cc1cc2cc(n1)-c1cnn(C)c1OCCC[C@@H](C)CN1/C(=N/C2=O)Nc2ccc(C(=O)N(C)C3CC4CCCC(C3)N4CCc3cc(F)c([C@H]4CCC(=O)NC4=O)c(F)c3)cc21 (stereo partly drawn) [Example 266, (7R,E)-N-(9-(4-((R)-2,6-dioxopiperidin-3-yl)-3,5-difluorophenethyl)-9-azabicyclo[3.3.1]nonan-3-yl) -N,1^1,2^6,7-tetramethyl-3-oxo-5^2,5^3-dihydro-1^1H,5^1H-11-oxa-4-aza-5(2,1)-benzo[d]imidazola-2(2,4)-pyridina-1(4,5)-pyrazolacycloundecaphane-5^6-carboxamide] | 1.51 nM | 81.4% | 0.65 nM | 75.93%
Cc1cc2cc(n1)-c1cnn(C)c1OCCC[C@@H](C)CN1/C(=N/C2=O)Nc2ccc(C(=O)N(C)[C@H]3CCN(CCc4cc(F)c([C@H]5CCC(=O)NC5=O)c(F)c4)[C@@H](C)C3)cc21 [Example 267, (R,E)-N—((2S,4S)-1-(4-((R)-2,6-dioxopiperidin-3-yl)-3,5-difluorophenethyl)-2-methylpiperidin-4-yl)-N,1^1,2^6,7-tetramethyl-3-oxo-5^2,5^3-dihydro-1^1H,5^1H-11-oxa-4-aza-5(2,1)-benzo[d]imidazola-2(2,4)-pyridina-1(4,5)-pyrazolacycloundecaphane-5^6-carboxamide] | 0.602 nM | 91.7% | 0.624 nM | 76.64%

The next lines start with results.

DC50 (L858R/T790M/C797S EGFR) | Dmax (L858R/T790M/C797S EGFR) | DC50 (Del19/T790M/C797S EGFR) | SMILES | Dmax (%) (Del19/T790M/C797S EGFR)
0.512 nM | 88% | 0.57 nM | Cc1cc2cc(n1)-c1cnn(C)c1OCCC[C@@H](C)CN1/C(=N/C2=O)Nc2ccc(C(=O)N(C)[C@@H]3CCN(CCc4cc(F)c([C@H]5CCC(=O)NC5=O)c(F)c4)C[C@H]3C)cc21 [Example 257, (R,E)-N—((3R,4R)-1-(4-((R)-2,6-dioxopiperidin-3-yl)-3,5-difluorophenethyl)-3-methylpiperidin-4-yl)-N,1^1,2^6,7-tetramethyl-3-oxo-5^2,5^3-dihydro-1^1H,5^1H-11-oxa-4-aza-5(2,1)-benzo[d]imidazola-2(2,4)-pyridina-1(4,5)-pyrazolacycloundecaphane-5^6-carboxamide] | 80.82%
0.544 nM | 94% | 0.633 nM | Cc1cc2cc(n1)-c1cnn(C)c1OCCC[C@@H](C)CN1/C(=N/C2=O)Nc2ccc(C(=O)N[C@@H]3CCN(CCc4cc(F)c([C@H]5CCC(=O)NC5=O)c(F)c4)CC3(F)F)cc21 [Example 260, (R,E)-N—((R)-1-(4-((R)-2,6-dioxopiperidin-3-yl)-3,5-difluorophenethyl)-3,3-difluoropiperidin-4-yl)-1,2^6,7-trimethyl-3-oxo-5^2,5^3-dihydro-1^1H,5^1H-11-oxa-4-aza-5(2,1)-benzo[d]imidazola-2(2,4)-pyridina-1(4,5)-pyrazolacycloundecaphane-5^6-carboxamide] | 86.51%
0.51 nM | 91.8% | 0.621 nM | Cc1cc2cc(n1)-c1cnn(C)c1OCCC[C@@H](C)CN1/C(=N/C2=O)Nc2ccc(C(=O)N[C@H]3CCN(CCc4cc(F)c([C@H]5CCC(=O)NC5=O)c(F)c4)CC3(C)C)cc21 [Example 261, (R,E)-N—((S)-1-(4-((R)-2,6-dioxopiperidin-3-yl)-3,5-difluorophenethyl)-3,3-dimethylpiperidin-4-yl)-1^1,2^6,7-trimethyl-3-oxo-5^2,5^3-dihydro-1^1H,5^1H-11-oxa-4-aza-5(2,1)-benzo[d]imidazola-2(2,4)-pyridina-1(4,5)-pyrazolacycloundecaphane-5^6-carboxamide] | 83.61%
0.543 nM | 84.2% | 0.474 nM | Cc1cc2cc(n1)-c1cnn(C)c1OCCC[C@@H](C)CN1/C(=N/C2=O)Nc2ccc(C(=O)N(C)[C@@H]3CCN(CCc4cc(F)c([C@H]5CCC(=O)NC5=O)c(F)c4)CC3(C)C)cc21 [Example 262, (R,E)-N—((R)-1-(4-((R)-2,6-dioxopiperidin-3-yl)-3,5-difluorophenethyl)-3,3-dimethylpiperidin-4-yl)-N,1^1,2^6,7-tetramethyl-3-oxo-5^2,5^3-dihydro-1^1H,5^1H-11-oxa-4-aza-5(2,1)-benzo[d]imidazola-2(2,4)-pyridina-1(4,5)-pyrazolacycloundecaphane-5^6-carboxamide] | 76.44%
0.351 nM | 93.6% | 0.597 nM | Cc1cc2cc(n1)-c1cnn(C)c1OCCC[C@@H](C)CN1/C(=N/C2=O)Nc2ccc(C(=O)N[C@@H]3CCN(CCc4cc(F)c([C@H]5CCC(=O)NC5=O)c(F)c4)CC3(C)C)cc21 [Example 263, (R,E)-N—((R)-1-(4-((R)-2,6-dioxopiperidin-3-yl)-3,5-difluorophenethyl)-3,3-dimethylpiperidin-4-yl)-1^1,2^6,7-trimethyl-3-oxo-5^2,5^3-dihydro-1H,5^1H-11-oxa-4-aza-5(2,1)-benzo[d]imidazola-2(2,4)-pyridina-1(4,5)-pyrazolacycloundecaphane-5^6-carboxamide] | 78.67%
0.53 nM | 89.8% | 0.439 nM | Cc1cc2cc(n1)-c1cnn(C)c1OCCC[C@@H](C)CN1/C(=N/C2=O)Nc2ccc(C(=O)N(C)[C@@H]3CCN(CCc4cc(F)c([C@H]5CCC(=O)NC5=O)c(F)c4)[C@H](C)C3)cc21 [Example 268, (R,E)-N—((2R,4R)-1-(4-((R)-2,6-dioxopiperidin-3-yl)-3,5-difluorophenethyl)-2-methylpiperidin-4-yl) -N,1^1,2^6,7-tetramethyl-3-oxo-5^2,5^3-dihydro-1^1H,5^1H-li-oxa-4-aza-5(2,1)-benzo[d]imidazola-2(2,4)-pyridina-1(4,5)-pyrazolacycloundecaphane-5^6-carboxamide] | 81.98%
0.316 nM | 92.7% | 0.638 nM | Cc1cc2cc(n1)-c1cnn(C)c1OCCC[C@@H](C)CN1/C(=N/C2=O)Nc2ccc(C(=O)N[C@@H]3CCN(CCc4cc(F)c([C@H]5CCC(=O)NC5=O)c(F)c4)[C@H](C)C3)cc21 [Example 269, (R,E)-N—((2R,4R)-1-(4-((R)-2,6-dioxopiperidin-3-yl)-3,5-difluorophenethyl)-2-methylpiperidin-4-yl)-1^1,2^6,7-trimethyl-3-oxo-5^2,5^3-dihydro-1^1H,5^1H-11-oxa-4-aza-5(2,1)-benzo[d]imidazola-2(2,4)-pyridina-1(4,5)-pyrazolacycloundecaphane-5^6-carboxamide] | 82.6%
